The text below walks through data of patent US7250432B2, “Pharmaceutical compositions of diaryl-isoxazole derivatives for the prevention and treatment of cancers” (Korea Research Institute of Bioscience and Biotechnology, priority 2003, dated 2007).

Series [1] has as its system breast cancer cell line (MDA-MB-231). The experiment in a line: Analysis of cell migration (modified Boyden chamber). The format is cell-based. The following applies: for inhibition at 1 µM / inhibition at 10 µM / Cell migration inhibition rate: breast cancer cells, 18 hours; for inhibition at 1 µM / inhibition at 10 µM: read-out: Cell migration inhibition rate. How it is done: In order to investigate cell migration, modified Boyden chamber and 8 μm pore membrane were purchased from Neuro probe Co. and staining solution for cell staining, Giemsa solution, was purchased from Sigma Co. Other instruments used were CO2 incubator for cell culture, centrifuge for cell washing and inverted microscope (TE 300, Nikon, Japan) for observation.
Particularly, 90% grown up cells on a culture plate were isolated using trypsin/EDTA. The cells were treated with soybean trypsin inhibitor, and washed with serum free medium three times. Then, cell density was adjusted to 4×10^5 cells/ml. The compounds of Example 1-6 and a medium supplemented with 10% FBS were put by 30 μl each in a chamber well of the bottom of modified Boyden chamber, on which 8 μm pore membrane was put. Silicon gasket was placed over and finally a top plate was put on the gasket and fastened with a nut. The cultured cells were put in a well of top plate by 50 μl. The chamber was rapped and further cultured in a 37° C. 5% CO2 incubator for 18 hours.
18 hours later, the nut was taken out. Membrane was separated and fixed in methanol for 10 minutes, followed by drying in the air. After membrane was completely dried, it was stained in Giemsa solution for 90 minutes. At that time, the staining solution was diluted with distilled water at the ratio of 1:10 before use. Upon competing staining, the membrane was dipped in distilled water for about 10 seconds for washing. The membrane was put on a cover slip with a part having cells not shifted heading up and scrubbed with a cotton swab carefully. Manicure was put on the edge of the cover slip, which was then fixed well on a slide glass. The number of migrated cells on the sample prepared above was investigated under inverted microscope.
Cell migration inhibition rate (%)=100−[Number of migrated cells treated with test samples/Number of migrated cells of control]×100
For a control group, only 1% dimethyl sulfoxide […]) was added instead of a compound of the present invention.

The subject of a further series is HUVEC. Kind of series: in vitro endothelial morphogenesis assay (tube formation). The series is classed as cell-based, human. The protocol: Angiogenesis inhibition activity of the compound of the present invention was investigated by in vitro endothelial morphogenesis assay using human originated cell line HUVEC.
24-well cell culture plate and matrigel matrix were purchased from BD biosciences Co. Other instruments used for the experiments were CO2 incubator for cell culture and inverted microscope (TE 300, Nikon, Japan) equipped with a digital camera for observation and confirmation of the result.
Particularly, starvation of HUVECs on a serum free medium was performed for overnight. Each well of 24-well cell culture plate was coated with 0.2 Ml of matrigel matrix, which was cultured in a 37° C. incubator for 1 hour. 0.2 Ml of cell culture solution with the cell density of 20000 was put in each well, which was further cultured in a CO2 incubator for 30 minutes. Then, a fresh medium, which was diluted with different concentrations of the compounds of Example 1-6, was given to each well. 1% serum was added to the wells, followed by further culture for 24 hours. Tube formation by HUVECs is observed. In this invention, inhibition of tube formation by the compound of the present invention was observed under inverted microscope, and the results were shown in FIG. 2 and FIG. 3. […]

Another series has as its system zebrafish. The experiment in a line: Angiogenesis inhibition in zebrafish embryos (subintestinal vessels). The following applies: FIG. 4. The series is classed as in vivo. How it is done: Experimental instruments used for the invention were temperature-controlled incubator for the incubation of embryo and inverted microscope (TE 300, Nikon, Japan) equipped with a digital camera for observation and confirmation for the results.
Embryos of zebrafish were loaded on a 96-well plate by three embryos per well. The embryos were confirmed to be synchronized embryos which means one day has passed after development. The compounds of the present invention were dissolved in 0.1% DMSO to prepare different concentrations for each compound. Each compound was treated to 4 wells and inhibition of subintestinal vessels (SIVs) in 12 embryos was investigated. To prepare a control, 8 wells were treated with 0.1% DMSO (in embryo water: 0.2 g/l instant ocean salt) (Randall T. Peterson, et al, Proc. Natl. Aced. Sci. USA, 2000, 97: 12965).
For the observation of angiogenic vessels (SIVs), an rmmunological approach of Catherine E. Willet, et al. (Catherine E. Willet, et al., Angiogenesis, 1999, 3: 353), was used in the present invention. Particularly, three days after development, an embryo was fixed in 4% paraformaldehyde at room temperature for 2 hours. The embryo was washed twice with PBS, and dehydrated step by step with PBS, 25%, 50%, 75% and 100% methanol. Then, the embryo was rehydrated step by step with 100%, 75%, 50% and 25% methanol and PBS. […]

A short description of series [2]: Acute oral toxicity test in rats. The format is in vivo. How it is done: 6-week old SPF (specific pathogen-free) SD line rats were used in the acute toxicity test. Compound 1 of the present invention was suspended in 0.5% methylcellulose solution and orally administered once to 2 rats per group. Death, clinical symptoms, and weight change in rats were observed, hematological tests and biochemical tests of blood were performed, and any abnormal signs in the gastrointestinal organs of chest and abdomen were checked with eyes during autopsy.

Where [3] appears, read: Homo sapiens, MDA-MB-231, 10 uM.

Turning to `CCc1cc(-c2oncc2-c2ccc(OC)cc2)c(OC)cc1OC` [Example 3, 5-(2,4-dimethoxy-5-ethylphenyl)-4-(4-methoxyphenyl)isoxazole], in series [1] (Homo sapiens, MDA-MB-231, 1 uM), the inhibition at 1 µM stood at 68.4%. In addition, in series [1] (setting [3]), the inhibition at 10 µM came out at 82.5%.

In the case of `CCc1cc(-c2oncc2-c2ccc(O)cc2)c(O)cc1OC` [Example 5, 5-(5-ethyl-2-hydroxy-4-methoxyphenyl)-4-(4-hydroxyphenyl)isoxazole], in series [1] (Homo sapiens, MDA-MB-231, 1 uM), the inhibition at 1 µM worked out at 43.5%. Also, the inhibition at 10 µM in series [1] (setting [3]) stood at 43.3%.

As usually defined, the LD50 is the dose at which mortality reaches 50%. As for `CCc1cc(-c2oncc2-c2ccc(OC)cc2)c(O)cc1OC` [Example 1, 5-(5-ethyl-2-hydroxy-4-methoxyphenyl)-4-(4-methoxyphenyl)isoxazole], the inhibition at 1 µM in series [1] (Homo sapiens, MDA-MB-231, 1 uM) stood at 92.3%. In series [1] (setting [3]), the inhibition at 10 µM turned out to be 94.5%. The compound further gave an inhibition at 0.05 µM in series [1] (Homo sapiens, 50 nM, MDA-MB-231, FIG. 1) not above 50%. For the same compound, the “inhibition of tube formation in vascular endothelial cells” value was “already detected” in the series with HUVEC (0.01 μM, FIG. 2) and “inhibited tube formation” in the series on HUVEC (1 μM, FIG. 3). For the same compound, the “inhibition of angiogenesis in zebrafish” value with zebrafish (0.5 μM) was “inhibited angiogenesis”. Moreover, the inhibition at 0.5 µM in the series on zebrafish (Danio rerio, 500 nM) was not above 50%. Besides, the LD50 in series [2] (SD, rat, in vivo, rats, oral, read-out: estimated LD50) was more than 1500 mg/kg. Besides, the “clinical symptoms, weight change, death” value in series [2] (rat, in vivo, po) is listed as “did not cause any specific clinical symptoms, weight change, or death”. The “hematological tests, biochemical tests of blood, autopsy” value in series [2] (rat, in vivo, po) is listed as “No change was observed”. Moreover, the “level up to which no toxic change was caused” value in series [2] (rats, single oral administration) was not above 1000 mg/kg.

With `CCc1cc(-c2oncc2-c2ccc(O)cc2)c(O)cc1O` [Example 6, 5-(2,4-dihydroxy-5-ethylphenyl)-4-(4-hydroxyphenyl)isoxazole], the inhibition at 1 µM in series [1] (Homo sapiens, MDA-MB-231, 1 uM) came out at 79.5%. In addition, in series [1] (setting [3]), the inhibition at 10 µM is 79.4%.

Regarding “5-(2,4-dimethoxy-5-ethylphenyl)-4-(4-bromophenyl)isoxazole [Example 2]”, the “Cell migration inhibition rate” value in series [1] (1 uM) stood at 90.80%; in series [1] (10 uM), 94.80%.

Regarding `CCc1cc(-c2oncc2-c2ccc(OC)cc2)c(OCc2ccccc2)cc1OC` [Example 4, 5-(2-benzyloxy-5-ethyl-4-methoxyphenyl)-4-(4-methoxyphenyl)isoxazole], in series [1] (Homo sapiens, MDA-MB-231, 1 uM), the inhibition at 1 µM was found to be 54.6%. For the same compound, in series [1] (setting [3]), the inhibition at 10 µM was found to be 70.1%.
